According to patent US20180312493A1, “Antibiotic Compounds, Pharmaceutical Formulations Thereof And Methods And Uses Therefor” (Simon Fraser University, priority 2015, published 2018):
≈ marks a conversion by molar mass, not a printed value.

Columns and labels:
K. pneumoniae (C238) = assay: In vitro susceptibility, broth microdilution (MIC); format: cell-based; conditions: Klebsiella pneumoniae; K. pneumoniae (C238); read-out: Antimicrobial activity (MIC) K. pneumoniae
Procedure, shortened: (§1)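 CLSI 2-fold serial broth microdilution; K. pneumoniae C238 grown in L-broth, S. aureus ATCC 29213 in Mueller Hinton broth, plates incubated 18–24 h at 37 °C. MIC taken as lowest concentration giving complete growth inhibition by OD600 versus compound-free wells, background-subtracted.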

S. aureus (ATCC29213) = assay: In vitro susceptibility, broth microdilution (MIC); format: cell-based; conditions: Staphylococcus aureus; S. aureus ATCC29213; 18-24 h, 37 C; read-out: Antimicrobial activity (MIC) S. aureus ATCC29213
Procedure, shortened: as §1

MRSA Pyk = biological target: T1, MRSA Pyk (Staphylococcus aureus, UniProt Q6GG09); assay: MRSA pyruvate kinase (PK) activity, continuous LDH-coupled assay; format: biochemical, methicillin resistant S. aureus (MRSA252)
T1 construct: made in house; host or cells: E. coli BL-21 (DE3)
T1 sequence (Q6GG09 whole entry): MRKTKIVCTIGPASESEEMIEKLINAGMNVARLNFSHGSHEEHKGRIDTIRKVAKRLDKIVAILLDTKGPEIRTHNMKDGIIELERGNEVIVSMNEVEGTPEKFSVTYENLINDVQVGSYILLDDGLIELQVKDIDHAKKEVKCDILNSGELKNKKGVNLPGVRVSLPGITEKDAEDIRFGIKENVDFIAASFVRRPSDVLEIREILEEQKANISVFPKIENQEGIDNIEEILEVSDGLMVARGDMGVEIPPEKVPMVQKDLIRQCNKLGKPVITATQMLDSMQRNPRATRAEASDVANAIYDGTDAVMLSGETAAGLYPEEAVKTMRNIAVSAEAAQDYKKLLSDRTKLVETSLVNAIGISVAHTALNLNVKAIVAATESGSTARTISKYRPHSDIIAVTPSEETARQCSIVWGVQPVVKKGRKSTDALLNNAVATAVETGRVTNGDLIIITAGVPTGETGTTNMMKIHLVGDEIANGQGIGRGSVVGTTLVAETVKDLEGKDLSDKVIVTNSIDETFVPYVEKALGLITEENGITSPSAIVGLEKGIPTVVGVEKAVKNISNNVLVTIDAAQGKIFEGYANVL
Procedure, shortened: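 His-tagged MRSA PK (strain Sanger 252) and human PK isoforms expressed in E. coli BL-21 (DE3) and Ni-NTA purified, used at 15 nM in an LDH-coupled assay following NADH oxidation at 340 nm, 30° C, up to 5 min, ≤1% DMSO. IC50 from four-parameter variable-slope fit; Ki with PEP 2-20 mM, ADP fixed 2 mM, inhibitor 0-400 nM.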

[1] = system: A. baumannii (ATCC 17978); assay: In vitro susceptibility, broth microdilution (MIC); format: cell-based; conditions: Acinetobacter baumannii, ATCC17978; A. baumannii ATCC 17978 (values marked *); read-out: Antimicrobial activity (MIC) A. baumannii
Procedure, shortened: (§2)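 MIC determined by CLSI 2-fold broth microdilution in cation-adjusted Mueller–Hinton broth at ~2.5×10^5 CFU/ml, final compound 0.031–64 μg/ml, 18–24 h at 37 °C. MIC is the lowest concentration giving complete growth inhibition by background-corrected OD600 versus compound-free wells; duplicate or triplicate wells, replicated at least twice.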

VRE#2 (2010A) = assay: In vitro susceptibility, broth microdilution (MIC); format: cell-based, vancomycin resistant Enterococci; conditions: VRE#2 (2010A); read-out: Antimicrobial activity (MIC) VRE#2
Procedure, shortened: as §2

MRSA MW2 (USA400) = assay: In vitro susceptibility, broth microdilution (MIC); format: cell-based, methicillin resistant S. aureus; conditions: Staphylococcus aureus; MRSA MW2 (USA400); read-out: Antimicrobial activity (MIC) MSRA USA400
Procedure, shortened: as §2

MRSA (ATCC BAA-1762) = assay: In vitro susceptibility, broth microdilution (MIC); format: cell-based, methicillin resistant S. aureus; conditions: Staphylococcus aureus; MRSA ATCC BAA-1762; read-out: Antimicrobial activity (MIC) MRSA ATCC BAA1762
Procedure, shortened: as §2

Row | Structure (SMILES) | MIC (K. pneumoniae (C238)) | MIC (S. aureus (ATCC29213)) | IC50 (MRSA Pyk) | MIC [1] | MIC (VRE#2 (2010A)) | MIC (MRSA MW2 (USA400)) | MIC (MRSA (ATCC BAA-1762))
1 | CN1CCN(CCNC(=O)c2c(-c3cc4cc(Cl)ccc4[nH]3)[nH]c3cc(Br)ccc23)CC1 [Compound 72, 6-Bromo-5′-chloro-N-(2-(4-methylpiperazin-1-yl)ethyl)-1H,1′H-[2,2′-biindole]-3-carboxamide] | 8 µg/mL (≈ 15.5 µM) | 8 µg/mL (≈ 15.5 µM) | < 100 nM | > 64 µg/mL | 8 µg/mL (≈ 15.5 µM) |  | 
2 | CN(C)CCNC(=O)c1c(NC(=O)c2ccc(Cl)cc2)[nH]c2cc(Br)ccc12 [Compound 84, 6-Bromo-2-(4-chlorobenzamido)-N-(2-(dimethylamino)ethyl)-1H-indole-3-carboxamide] | 16 µg/mL (≈ 34.5 µM) | 64 µg/mL (≈ 138 µM) |  |  |  | > 64 µg/mL | 
3 | O=S(=O)(Nc1nc2cc(Br)ccc2s1)c1ccc(Cl)cc1 [Compound 101, N-(5-bromobenzo[d]thiazol-2-yl)-4-chlorobenzenesulfonamide] | 32 µg/mL (≈ 79.3 µM) | 8 µg/mL (≈ 19.8 µM) |  |  |  | > 64 µg/mL | 
4 | Clc1ccc(-c2cc3[nH]c4cc(Br)ccc4c3nc2-c2ccccc2)cc1 [Compound 112, 7-bromo-3-(4-chlorophenyl)-2-phenyl-5H-pyrido[3,2-b]indole] | > 64 µg/mL | 32 µg/mL (≈ 73.8 µM) | 100 to 1000 nM | > 64 µg/mL | > 64 µg/mL |  | 
5 | NC(=O)[C@@H]1CCCN1CCNC(=O)c1c(-c2cc3cc(Cl)ccc3[nH]2)[nH]c2cc(Br)ccc12 [Compound 120, (S)-6-Bromo-N-(2-(2-carbamoylpyrrolidin-1-yl)ethyl)-5′-chloro-1H,1′H-[2,2′-biindole]-3-carboxamide] |  | > 64 µg/mL | < 100 nM | > 64 µg/mL |  |  | 
6 | COCC(=O)N1CCCN(CCNC(=O)c2c(-c3cc4cc(Cl)ccc4[nH]3)[nH]c3cc(Br)ccc23)CC1 [Compound 121, 6-Bromo-5′-chloro-N-(2-(4-(2-methoxyacetyl)-1,4-diazepan-1-yl)ethyl)-1H,1′H-[2,2′-biindole]-3-carboxamide] |  | > 64 µg/mL | < 100 nM | > 64 µg/mL |  |  | 
7 | O=C(NCCN1CCC[C@H]1C(=O)O)c1c(-c2cc3cc(Cl)ccc3[nH]2)[nH]c2cc(Br)ccc12 [Compound 125, (2-(6-Bromo-5′-chloro-1H,1′H-[2,2′-biindole]-3-carboxamido)ethyl)-L-proline] |  | > 64 µg/mL | < 100 nM | > 64 µg/mL |  |  | 
8 | O=C1CN(CCNC(=O)c2c(-c3cc4cc(Cl)ccc4[nH]3)[nH]c3cc(Br)ccc23)CCN1 [Compound 127, 6-bromo-5′-chloro-N-(2-(3-oxopiperazin-1-yl)ethyl)-1H,1′H-2,2′-biindole-3-carboxamide] |  | > 64 µg/mL | < 100 nM | > 64 µg/mL |  |  | 
9 | O=C(NCCc1ccncc1)c1c(-c2cc3cc(Cl)ccc3[nH]2)[nH]c2cc(Br)ccc12 [Compound 142, 6-bromo-5′-chloro-N-(2-(pyridin-4-yl)ethyl)-1H,1′H-[2,2′-biindole]-3-carboxamide] |  | > 64 µg/mL | < 100 nM | > 64 µg/mL |  |  | 
10 | CN(C)c1cc[n+](CCCNC(=O)c2c(-c3cc4cc(Cl)ccc4[nH]3)[nH]c3cc(Br)ccc23)cc1 [Compound 145, 1-(3-(6-bromo-5′-chloro-1H, 1′H-[2,2′-biindole]-3-carboxamido)propyl)-4-(dimethylamino)pyridin-1-ium] |  | 8 µg/mL | < 100 nM | > 64 µg/mL | 16 µg/mL |  | 16 µg/mL
11 | O=C(NCCC[n+]1ccc2ccccc2c1)c1c(-c2cc3cc(Cl)ccc3[nH]2)[nH]c2cc(Br)ccc12 [Compound 146, 2-(3-(6-bromo-5′-chloro-1H,1′H-[2,2′-biindole]-3-carboxamido)propyl)isoquinolin-2-ium] |  | 32 µg/mL | < 100 nM | > 64 µg/mL | 64 µg/mL |  | 32 µg/mL
12 | C[N+](C)(C)CCCNC(=O)c1c(-c2cc3cc(Cl)ccc3[nH]2)[nH]c2cc(Br)ccc12 [Compound 147, 3-(6-bromo-5′-chloro-1H,1′H-[2,2′-biindole]-3-carboxamido)-N,N,N-trimethylpropan-1-aminium] |  | 16 µg/mL | < 100 nM | > 64 µg/mL | 16 µg/mL |  | 16 µg/mL
13 | COc1ccc(NC(=O)Nc2nc3cc(Br)ccc3s2)cc1 [Compound 152, 1-(5-bromobenzo[d]thiazol-2-yl)-3-(4-methoxyphenyl)urea] |  | 1 µg/mL (≈ 2.64 µM) |  | > 64 µg/mL | 2 µg/mL (≈ 5.29 µM) |  | 1 µg/mL (≈ 2.64 µM)
14 | O=C(Nc1ccc(Cl)c(Cl)c1)Nc1nc2cc(Br)ccc2s1 [Compound 155, 1-(5-bromobenzo[d]thiazol-2-yl)-3-(3,4-dichlorophenyl)urea] |  | 0.5 µg/mL (≈ 1.2 µM) |  | > 64 µg/mL | 0.5 µg/mL (≈ 1.2 µM) |  | 0.5 µg/mL (≈ 1.2 µM)
15 | O=C(Nc1ccc(Cl)c(C(F)(F)F)c1)Nc1nc2cc(Br)ccc2s1 [Compound 156, 1-(5-bromobenzo[d]thiazol-2-yl)-3-(4-chloro-3-(trifluoromethyl)phenyl)urea] |  | 0.5 µg/mL (≈ 1.11 µM) |  | 64 µg/mL (≈ 142 µM) | 1 µg/mL (≈ 2.22 µM) |  | 1 µg/mL (≈ 2.22 µM)
16 | O=C(NCc1ccccc1)Nc1nc2cc(Br)ccc2s1 [Compound 158, 1-benzyl-3-(5-bromobenzo[d]thiazol-2-yl)urea] |  | 2 µg/mL (≈ 5.52 µM) |  | > 64 µg/mL | 2 µg/mL (≈ 5.52 µM) |  | 1 µg/mL (≈ 2.76 µM)
17 | CC(=O)OCCCNC(=O)c1c(-c2cc3cc(Cl)ccc3[nH]2)[nH]c2cc(Br)ccc12 [Compound 183, 3-(6-Bromo-5′-chloro-1H,1′H-[2,2′-biindole]-3-carboxamido)propyl Acetate] |  | > 64 µg/mL | < 100 nM | > 64 µg/mL |  |  | 
18 | CC(C)[C@@H](C(=O)OCCCNC(=O)c1c(-c2cc3cc(Cl)ccc3[nH]2)[nH]c2cc(Br)ccc12)N(C)C [Compound 185, 3-(6-Bromo-5′-chloro-1H,1′H-[2,2′-biindole]-3-carboxamido)propyl Dimethyl-L-valinate] |  | > 64 µg/mL | < 100 nM | > 64 µg/mL |  |  | 
19 | COC(=O)COc1cc2[nH]c(-c3cc4ccc(Br)cc4[nH]3)cc2cc1Cl [Compound 188, Methyl 2-((6′-bromo-5-chloro-1H,1′H-[2,2′-biindol]-6-yl)oxy)acetate] |  | > 64 µg/mL | < 100 nM | > 64 µg/mL |  |  | 
20 | CN(C)CCNC(=O)COc1cc2[nH]c(-c3cc4ccc(Br)cc4[nH]3)cc2cc1Cl [Compound 189, 2-((6′-Bromo-5-chloro-1H,1′H-[2,2′-biindol]-6-yl)oxy)-N-(2-(dimethylamino)ethyl)acetamide] |  | > 64 µg/mL | < 100 nM | > 64 µg/mL |  |  | 
21 | O=C(COc1cc2[nH]c(-c3cc4ccc(Br)cc4[nH]3)cc2cc1Cl)NCCC[n+]1ccccc1 [Compound 190, 1-(3-(2-((6′-Bromo-5-chloro-1H,1′H-[2,2′-biindol]-6-yl)oxy)acetamido)propyl)pyridin-1-ium Acetate] |  | 8 µg/mL | < 100 nM | > 64 µg/mL | 16 µg/mL |  | 8 µg/mL
22 | O=C(COc1cc2[nH]c(-c3cc4ccc(Br)cc4[nH]3)cc2cc1Cl)NCCO [Compound 192, 2-((6′-Bromo-5-chloro-1H,1′H-[2,2′-biindol]-6-yl)oxy)-N-(2-hydroxyethyl)acetamide] |  | > 64 µg/mL | < 100 nM | > 64 µg/mL |  |  | 
23 | O=C(COc1cc2[nH]c(-c3cc4ccc(Br)cc4[nH]3)cc2cc1Cl)NS(=O)(=O)c1ccc(NC(=O)C(F)(F)F)cc1 [Compound 195, N-(4-(N-(2-((6′-Bromo-5-chloro-1H, 1′H-[2,2′-biindol]-6-yl)oxy)acetyl)sulfamoyl)phenyl)-2,2,2-trifluoroacetamide] |  | 64 µg/mL (≈ 95.5 µM) | < 100 nM | > 64 µg/mL |  |  | 64 µg/mL (≈ 95.5 µM)
24 | CN(C)CCc1c(-c2nc3cc(Cl)c(Cl)cc3[nH]2)[nH]c2cc(Br)ccc12 [Compound 202, 2-(6-Bromo-2-(5,6-dichloro-1H-benzo[d]imidazol-2-yl)-1H-indol-3-yl)-N,N-dimethylethan-1-amine] |  | 4 µg/mL (≈ 8.85 µM) | < 100 nM | > 64 µg/mL | 4 µg/mL (≈ 8.85 µM) |  | 4 µg/mL (≈ 8.85 µM)
25 | O=C(O)CNC(=O)c1c(-c2cc3cc(Cl)ccc3[nH]2)[nH]c2cc(Br)ccc12 [Compound 204, (6-Bromo-5′-chloro-1H,1′H-[2,2′-biindole]-3-carbonyl)glycine] |  | 64 µg/mL (≈ 143 µM) | < 100 nM | > 64 µg/mL |  |  | 
26 | Clc1ccc2[nH]c(-c3cc4ccc(Br)cc4[nH]3)nc2n1 [Compound 208, 2-(6-Bromo-1H-indol-2-yl)-5-chloro-1H-imidazo[4,5-b]pyridine] |  | 8 µg/mL (≈ 23 µM) | > 1000 nM | > 64 µg/mL | 16 µg/mL (≈ 46 µM) |  | 8 µg/mL (≈ 23 µM)
